According to US7453011B2, “Cycloalkyl substituted polyamines for cancer therapy and methods of synthesis therefor” (Progen Pharmaceuticals, Inc., priority 2001, dated 2008):
Counter-ions that a name gives are not always drawn. Like-named read-outs stand apart in the source and are kept apart here.

Key:
[1] = tested on: DuPro human prostate cancer cell line; test: MTT assay, DuPro cells; type: cell-based
Procedure: (§1) The polyamine analogs inhibited prostate cancer cell growth in vitro., as indicated in Table 1 and FIG. 1, FIG. 2, FIG. 3, FIG. 4, and FIG. 5. Tissue cultures and the MTT assay were performed as follows. Additional protocols for in vitro assays are disclosed in International Patent Applications WO 00/66175, WO 00/66528, WO 00/66587, WO 98/17624, Valasinas et al., J. Med. Chem. 44:390-403 (2001), and U.S. Provisional Patent Application Ser. No. 60/329,982 filed Oct. 16, 2001.
(§2) Tissue Culture. Cells were seeded into 75 cm^2 culture flasks with 15 ml of Eagle's minimal essential medium supplemented with 10% fetal calf serum and nonessential amino acids. The flasks were incubated in a humidified 95% air/5% CO2 atmosphere. The cells were grown for at least 24 h to ensure that they are in the log phase of growth and then they were treated with the polyamine analogs. Cells were harvested by treatment for 5 min with STV (saline A, 0.05% trypsin, 0.02% EDTA) at 37° C. The flasks were rapped on the lab bench, pipetted several times and aliquots of cell suspension were withdrawn and counted using a Coulter particle counter that has been standardized for counting each cell line using a hemacytometer.
(§3) MTT Assay: Trypsinized cell suspensions were diluted to seed 80 μl suspensions containing 500 cells in each well of a 96 well Corning microtiter plate and incubated overnight at 37° C. in a humidified incubator in 5% CO2. 20 μl of appropriately diluted stock solution of each drug (i.e., polyamine analog) were added to the middle 8 columns of cell suspension in the microtiter plates. Each drug concentration was run in quadruplicate. Outer columns of the plates were used for buffer controls. Cells were incubated with the drug for 6 days at 37° C. in 5% CO2/H2O atmosphere. 25 μl of 5 mg/ml solution of 3-(4,5-dimethylthiazol-2-yl)-2,5-diphenyl tetrazolium bromide (MTT) were added to each well and incubated for 4 hours at 37° C. in 5% CO2/H2O incubator. Cells were lysed by incubating overnight with 100 μl lysis buffer (500 ml of the lysis buffer contains: 100 g lauryl sulfate (SDS), 250 ml of N,N-dimethylformamide, and 2 ml of glacial acetic acid, made up to volume with water; pH 4.8).
(§4) The color was monitored at room temperature at 570 nm in a E-max Precision Microplate Reader (Molecular Devices Corporation, Sunnyvale, Calif.) and data was analyzed using cell survival software supplied by Molecular Devices Corporation.
(§5) The effects of SL-11218 and SL-11231 on the growth of human prostate tumor cell lines PC-3, DU-145, DuPro and LnCap and on human breast cancer cell lines MCF-7 and MDA-MB-231 in culture were determined by an MTT assay. The growth inhibitory effects were expressed as ID50 value which is defined as the drug concentration required to inhibit 50% cell growth after 5 days of treatment. The results are shown in Table 2; the numbers are the average of the values determined in at least three separate experiments. Both compounds are effective in inhibiting human prostate tumor cell growth in culture.

[2] = tested on: PC-3 human prostate cancer cell line; test: MTT assay, PC-3 cells; type: cell-based
Procedure: as §1, §2, §3, §4, §5

[3] = tested on: DU145 human prostate cancer cell line; test: MTT assay, DU145 cells; type: cell-based; details: read-out: ID50 DU145
Procedure: as §1, §2, §3, §4, §5

[4] = tested on: MCF-7 human breast cancer cell line; test: MTT assay, MCF-7 cells; type: cell-based; details: for IC50: Table 2, 5 days of treatment, average of at least three experiments, read-out: ID50 MCF-7
Procedure: as §3, §4, §5

[5] = tested on: MDA-MB-231 human breast cancer cell line; test: MTT assay, MDA-MB-231 cells; type: cell-based; details: Table 2, 5 days of treatment, average of at least three experiments, read-out: ID50 MDA-MB-231
Procedure: as §3, with “Cells were lysed by incubating overnight with 100 μl lysis buffer (500 ml of the lysis buffer contains: 100 g lauryl sulfate (SDS), 250 ml of N,N-dimethylformamide, and 2 ml of glacial acetic acid, made up to volume with water; pH 4.8).” left out
as §4
(§6) The effects of SL-11218 and SL-11231 on the growth of human prostate tumor cell lines PC-3, DU-145, DuPro and LnCap and on human breast cancer cell lines MCF-7 and MDA-MB-231 in culture were determined by an MTT assay. […] The results are shown in Table 2; the numbers are the average of the values determined in at least three separate experiments. […]

[6] = tested on: DuPro human prostate tumor cell line; test: Colony forming efficiency (CFE) assay, DuPro; type: cell-based; details: FIG. 6
[7] = tested on: DU-145 human prostate tumor xenograft; test: DU-145 human prostate tumor xenograft in nude mice; type: in vivo
Procedure: (§7) Male athymic nude mice were given s.c. injections of 1×10^6 DU-145 cells on Day 0. Beginning on Day 7, mice were treated i.p q1w×4 for 3 cycles with either saline, 50 mg/kg SL-11218 or 75 mg/kg SL-11218 (pH 7.4) i.p. at 10 ml/kg dosing volume. (Cage issues in the control cage were due to a water bottle leaking and lack of food for 24 hours.) The treatment was carried out once weekly for four weeks (q1w×4) in 3 cycles with a 4 week gap between each cycle. (i.e., cycle 1, administration on days 7, 14, 21, 28; cycle 2, administration on days 49, 56, 63, 70; cycle 3, administration on days 98, 105, 112, 119). All p values were compared to vehicle treated mice.
(§8) The effect of SL-11231 at 12.5 mg/kg for 5 consecutive days against DU-145 human prostate tumor xenograft in nude mice is shown in FIG. 8a. […] (Note that the value reported in Table 1 for SL-11231 versus DU-145 cells is for a single experiment, while the value reported in Table 2 is an average of multiple experiments.)

[8] = tested on: BxPC-3 human pancreatic tumor xenograft; test: Human pancreatic tumor xenograft in nude mice; type: in vivo; details: 10 days break
[9] = tested on: large (~2000 mm^3) DU-145 tumor xenograft; test: Large DU-145 tumor xenograft in nude mice; type: in vivo
Procedure: (§9) In addition, SL-11218 at a dose of 75 mg/kg i.p. for q1w×4 stabilized large (˜2000 mm^3) DU-145 tumor xenograft for 2 cycles with a 4 week gap between each cycle (FIG. 11a). Male athymic nude mice were given s.c. injections of 1×10^6 DU145 cells on Day 0. Beginning on Day 10, mice were given acidified water vehicle orally at 10 ml/kg dosing volume 1× weekly for 8 weeks. On D66 mice began weekly treatment of saline versus SL-11218 i.p. After cycle 1 there was a 27% reduction in tumor volume compared to vehicle treated controls. After cycle 2 there was a significant reduction of 64% with 15% drop in body weight which recovered between cycles. (Cycle 1, administration on days 66, 73, 80, 87; cycle 2, administration on days 115, 122, 129, 136.) BW p values were compared to untreated controls. At d87, p=0.005 for SL-11218. (For saline vehicle, n=9; at d 87 n=8; at d 101, n=4; for SL-11218 n=9; d 80 n=7; d 101 n=5). FIG. 11b indicates the effect of SL-11218 on animal bodyweight (saline vehicle, n=9, at d87, n=8; at d101 n=4; for SL-11218, n=9; at d80, n=7, at d101 n=5; p=0.015 at d98 and 0.001 at d132).

[10] = Body weight of DU-145 tumor-bearing nude mice under treatment; type: in vivo
Procedure: as §7, §8, §9

[11] = tested on: LnCap human prostate cancer cell line; test: MTT assay, LnCap cells; type: cell-based; details: read-out: ID50 LnCap
Procedure: as §1, §2
MTT Assay: Trypsinized cell suspensions were diluted to seed 80 μl suspensions containing 500 cells in each well of a 96 well Corning microtiter plate and incubated overnight at 37° C. in a humidified incubator in 5% CO2. […]
as §4, §6

[12] = tested on: Tsu-pr1 human prostate cancer cell line; test: MTT assay, Tsu-pr1 cells; type: cell-based; details: Table 1, read-out: ID50 Tsu-pr1
Procedure: as §1
as §2, with “Cells were harvested by treatment for 5 min with STV (saline A, 0.05% trypsin, 0.02% EDTA) at 37° C.” left out, “hemacytometer. […]” for “hemacytometer.”
as §4

[13] = tested on: Tsu-pr1-ADR human prostate cancer cell line; test: MTT assay, Tsu-pr1-ADR cells; type: cell-based; details: Table 1, read-out: ID50 Tsu-pr1-ADR
Procedure: as §1
as §2, with “Cells were harvested by treatment for 5 min with STV (saline A, 0.05% trypsin, 0.02% EDTA) at 37° C.” left out, “hemacytometer. […]” for “hemacytometer.”
as §4

[14] = multiple injection (ip) schedules; cited from earlier work
[15] = tested on: L1210 leukemia or Lewis lung carcinoma; details: L1210 leukemia or Lewis lung carcinoma grafted in athymic nude mice; cited from earlier work
[16] = Table 1, human prostate cancer cell line DuPro, read-out: ID50 DuPro
[17] = Table 1, PC-3, read-out: ID50 PC-3
[18] = Table 1, DU145, SL-11231 value from a single experiment
[19] = Table 2, 5 days of treatment, average of at least three experiments, read-out: ID50 DUPRO
[20] = Table 2, 5 days of treatment, average of at least three experiments, read-out: ID50 PC3
[21] = Table 2, 5 days of treatment, average of at least three experiments

CCNCC1CC1CNCC1CC1CNCC1CC1CNCC (mixture of isomers) [SL-11215]
IC50 [1, 16]: 630 nM | IC50 [2, 17]: > 31200 nM | IC50 [3, 18]: 60 nM

CCNCC1CC1CNCCCCNCC1CC1CNCC.Cl.Cl.Cl.Cl (mixture of isomers) [SL-11218]
IC50 [1, 16]: 260 nM | IC50 [1, 19]: 260 nM | IC50 [2, 17]: > 31200 nM | IC50 [2, 20]: > 31200 nM | IC50 [3, 18]: 63 nM | IC50 [3, 21]: 60 nM | IC50 [4]: 4250 nM | activity against MCF-7 breast cancer cells ([4]; in words): some activity | IC50 [5]: > 31200 nM | cytotoxicity by CFE assay [6]: marked cytotoxicity | effect on tumor growth ([7]; 50 mg/kg i.p. q1w×4, 3 cycles): temporarily arrested tumor growth | effect on tumor growth ([7]; 75 mg/kg i.p. q1w×4, 3 cycles): arrested tumor growth throughout the treatment period of 120 days | effect on human pancreatic tumor growth ([8]; 50 mg/kg i.p. q1d×5, 2 cycles): effectively inhibit human pancreatic tumor growth | effect on large tumor xenograft ([9]; 75 mg/kg i.p. q1w×4, 2 cycles): stabilized | reduction in tumor volume compared to vehicle treated controls ([9]; 75 mg/kg i.p. q1w×4, after cycle 1): 27% | reduction in tumor volume compared to vehicle treated controls ([9]; 75 mg/kg i.p. q1w×4, after cycle 2): 64% | bodyweight loss ([10]; 75 mg/kg i.p. q1w×4, 3 cycles, 120 days, DU-145 xenograft): without appreciable bodyweight loss | drop in body weight ([10]; 75 mg/kg i.p. q1w×4, after cycle 2, large DU-145 xenograft, recovered between cycles): 15%

CCNCCCCNCC1CC1CNCCCCNCC1CC1CNCCCCNCC (mixture of isomers) [SL-11231]
IC50 [1, 16]: 380 nM | IC50 [1, 19]: 380 nM | IC50 [2, 17]: > 31200 nM | IC50 [2, 20]: > 31200 nM | IC50 [3, 18]: 80 nM | IC50 [3, 21]: 120 nM | IC50 ([11]; Table 1, LnCap): 150 nM | IC50 [11, 21]: 150 nM | IC50 [4]: > 31200 nM | IC50 [5]: > 31200 nM | effect on tumor growth ([7]; 12.5 mg/kg for 5 consecutive days): efficiently inhibits tumor growth | effect on human pancreatic tumor growth ([8]; 12.5 mg/kg i.p. q1d×5, 2 cycles): effectively inhibit human pancreatic tumor growth | effect on animal bodyweight ([10]; 12.5 mg/kg for 5 consecutive days, DU-145 xenograft): without appreciable effects on animal bodyweight

CCNCCCCNCC1CC1CNCCCCNCC (racemic) [SL-11093]
IC50 [1, 16]: 200 nM | IC50 [2, 17]: 4170 nM | IC50 [3, 18]: 10 nM | IC50 ([11]; Table 1, LnCap): 210 nM | IC50 [12]: 70 nM | IC50 [13]: > 31200 nM

CCNCCCCNCCCCNCCCCNCCCCNCC1CC1CNCCCCNCCCCNCCCCNCCCCNCC (racemic) [SL-11241]
IC50 [1, 16]: 340 nM | IC50 [2, 17]: 400 nM | IC50 [3, 18]: 200 nM

NCCCCNCC1CC1CNCCCCN (racemic) [SL-11245]
IC50 [1, 16]: > 31200 nM | IC50 [2, 17]: > 31200 nM | IC50 [3, 18]: 610 nM

CC(C)(C)NCCCCNCC1CC1CNCCCCNC(C)(C)C (racemic) [SL-11247]
IC50 [1, 16]: > 31200 nM | IC50 [2, 17]: > 31200 nM | IC50 [3, 18]: 11200 nM

CCNCCCCNCCCCNCCCCNCC [BE-4-4-4, ^1N,^14N-bisethylhomospermine]
maximum tolerated dose (MTD) [14]: ca. 6 mg/kg | increase in lifespan as compared to control [15]: ca. 6 fold

CCNCCCCNCC1CC1CNCCCCNCCCCNCC1CC1CNCCCCNCCCCNCC1CC1CNCCCCNCC (stereo not drawn) [SL-11232, 10,11-25,26-40,41-ter[(E)-1,2-cyclopropyl]-3,8,13,23,28,33,38,43,48-decaazapentacontane decahydrochloride]
IC50 [1, 16]: 200 nM | IC50 [2, 17]: 300 nM

CCNCCCCNCC1CC1CNCCCCN (stereo not drawn) [SL-11242]
IC50 ([2]; Homo sapiens, Table 1, PC-3, read-out: ID50 PC-3): > 31200 nM
